Laboratory results published in patent US4933346A, “Diarylalkyl piperazine derivatives, a process for their preparation, their use, and medicaments containing them” (Hoechst Aktiengesellschaft, priority 1987, dated 1990).
Where a name gives a salt, the structure may show the parent alone.

Biological target: ^3 H-nitrendipine binding, membrane preparation obtained from the cortex of the rat brain
Test: displacement of tritium-labeled nitrendipine in a membrane preparation from the cortex of the rat brain
Conditions: ^3 H-nitrendipine 0.1 nM, 25° C., 60 min, pH 7.4; unspecific binding with 1 μM nifedipine
Description: We carried out this test in a membrane preparation obtained from the cortex of the rat brain and washed several times, the method which we used being essentially that of R. J. Gould et al. (Proc. Natl. Acad. Sci. USA 79, 3656 [1982]). […] The membrane fractions were removed by vacuum filtration through Whatman GF/F fiber glass filters, and the radioactivity was measured in a liquid scintillation counter. We determined the unspecific ^3 H-nitrendipine binding in the presence of 1 μM nifedipine. The IC50 is determined as characteristic quantity, i.e. the concentration of test substance which is able to displace 50% of the radiolabeled nitrendipine.

Fc1ccc(C(CCCN2CCN(CCSc3cccc(Cl)c3)CC2)c2ccc(F)cc2)cc1 [Example 5, 1-[4,4-bis(4-fluorophenyl)butyl]-4-[2-(3-chlorophenylthio)ethyl]piperazine dihydrochloride]
IC50: 1.2 nM

Cc1ccc(SCCN2CCN(CCCC(c3ccc(F)cc3)c3ccc(F)cc3)CC2)cc1 [Example 2, 1-[4,4-bis(4-fluorophenyl)butyl]-4-[2-(4-methylphenylthio)ethyl]piperazine dihydrochloride]
IC50: 20 nM

Fc1ccc(C(CCCN2CCN(CCSc3ccc(Cl)cc3)CC2)c2ccc(F)cc2)cc1 [Example 1, 1-[4,4-bis(4-fluorophenyl)butyl]-4-[2-(4-chlorophenylthio)ethyl]piperazine]
IC50: 4 nM

Cc1cccc(C)c1NC(=O)CN1CCN(CCCC(c2ccc(F)cc2)c2ccc(F)cc2)CC1 [Lidoflazine, lidoflazine, reference compound]
IC50: 430 nM

O=[N+]([O-])c1ccc(SCCN2CCN(CCCC(c3ccc(F)cc3)c3ccc(F)cc3)CC2)cc1 [Example 4, 1-[4,4-bis(4-fluorophenyl)butyl]-4-[2-(4-nitrophenylthio)ethyl]piperazine dihydrochloride]
IC50: 22 nM

Fc1ccc(SCCN2CCN(CCCC(c3ccc(F)cc3)c3ccc(F)cc3)CC2)cc1 [Example 3, 1-[4,4-bis(4-fluorophenyl)butyl]-4-[2-(4-fluorophenylthio)ethyl]piperazine dihydrochloride]
IC50: 7 nM
